In assay [1] the target is D(3) dopamine receptor (Homo sapiens, UniProt P35462). As to the kind of experiment: Agonist activity at human dopamine D3 receptor expressed in CHO cells assessed as stimulation of [35S]GTPgammaS binding after 60 mins by scintillation counting analysis. Type of assay: functional, cell-based. In general terms: GTPγS resists hydrolysis and so accumulates on activated G proteins.

The target in assay [2] is D(2) dopamine receptor (Rattus norvegicus, UniProt P61169). As to the kind of experiment: Displacement of [3H]spiperone from rat cloned dopamine D2L receptor expressed in HEK293 cells after 1 hr. In kind it is cell-based. For orientation: Displacement assays read how much labelled ligand stays bound in the presence of the test substance.
Sequence of D(2) dopamine receptor (Rattus norvegicus, UniProt P61169) (P61169 whole entry): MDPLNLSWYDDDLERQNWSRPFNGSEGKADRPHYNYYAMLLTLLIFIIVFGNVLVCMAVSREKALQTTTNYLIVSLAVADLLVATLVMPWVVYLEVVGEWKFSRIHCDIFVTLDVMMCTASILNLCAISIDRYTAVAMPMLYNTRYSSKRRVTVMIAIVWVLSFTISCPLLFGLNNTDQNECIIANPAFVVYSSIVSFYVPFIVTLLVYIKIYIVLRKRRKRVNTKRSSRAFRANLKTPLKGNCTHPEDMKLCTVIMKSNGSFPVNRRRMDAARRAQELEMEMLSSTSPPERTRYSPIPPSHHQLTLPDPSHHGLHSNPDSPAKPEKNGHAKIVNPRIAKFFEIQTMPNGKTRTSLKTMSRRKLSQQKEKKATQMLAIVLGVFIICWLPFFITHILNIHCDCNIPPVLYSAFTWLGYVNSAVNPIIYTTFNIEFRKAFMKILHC
Assay [3] has as its target D(3) dopamine receptor (Rattus norvegicus, UniProt P19020). As to the kind of experiment: Displacement of [3H]spiperone from rat cloned dopamine D3 receptor expressed in HEK293 cells after 1 hr. In kind it is cell-based.
The target in assay [4] is T1, D(2) dopamine receptor (Homo sapiens, UniProt P14416). As to the kind of experiment: Agonist activity at human dopamine D2L receptor expressed in CHO cells assessed as stimulation of [35S]GTPgammaS binding after 60 mins by scintillation counting analysis. Type of assay: functional, cell-based.
T1 sequence (P14416 whole entry): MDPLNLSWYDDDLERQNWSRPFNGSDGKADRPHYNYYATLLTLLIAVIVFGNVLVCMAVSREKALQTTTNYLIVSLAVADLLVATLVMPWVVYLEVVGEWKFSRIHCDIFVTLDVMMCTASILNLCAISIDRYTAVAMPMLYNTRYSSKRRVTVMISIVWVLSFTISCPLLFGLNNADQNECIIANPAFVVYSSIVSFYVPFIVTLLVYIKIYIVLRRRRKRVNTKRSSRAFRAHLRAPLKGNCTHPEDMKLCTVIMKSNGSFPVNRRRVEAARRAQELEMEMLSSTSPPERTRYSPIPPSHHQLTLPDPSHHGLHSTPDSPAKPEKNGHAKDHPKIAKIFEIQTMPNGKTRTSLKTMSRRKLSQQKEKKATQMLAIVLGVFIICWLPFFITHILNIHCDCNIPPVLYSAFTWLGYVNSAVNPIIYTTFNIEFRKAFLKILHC
Assay [5] addresses T1, D(2) dopamine receptor. Description: Agonist activity at human dopamine D2L receptor expressed in CHO cells assessed as stimulation of [35S]GTPgammaS binding after 60 mins by scintillation counting analysis relative to dopamine. In kind it is functional, cell-based.
Assay [6] is filed under the species Rattus norvegicus. As to the kind of experiment: Selectivity ratio of Ki for rat cloned dopamine D2L receptor to Ki for rat cloned dopamine D3 receptor.

Structures are written as SMILES.

Sequence of D(3) dopamine receptor (Homo sapiens, UniProt P35462) (P35462 whole entry): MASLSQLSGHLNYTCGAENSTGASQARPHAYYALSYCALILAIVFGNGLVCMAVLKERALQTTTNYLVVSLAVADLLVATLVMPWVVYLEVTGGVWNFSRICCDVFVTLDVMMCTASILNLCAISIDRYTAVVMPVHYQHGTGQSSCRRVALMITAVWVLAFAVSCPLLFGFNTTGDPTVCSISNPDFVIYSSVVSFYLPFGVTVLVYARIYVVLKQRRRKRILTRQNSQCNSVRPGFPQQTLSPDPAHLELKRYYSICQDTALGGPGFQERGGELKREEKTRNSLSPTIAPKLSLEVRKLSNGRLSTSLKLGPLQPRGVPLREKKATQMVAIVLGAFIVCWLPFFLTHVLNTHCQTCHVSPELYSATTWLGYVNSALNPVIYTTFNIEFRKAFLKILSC
Sequence of D(3) dopamine receptor (Rattus norvegicus, UniProt P19020) (P19020 whole entry): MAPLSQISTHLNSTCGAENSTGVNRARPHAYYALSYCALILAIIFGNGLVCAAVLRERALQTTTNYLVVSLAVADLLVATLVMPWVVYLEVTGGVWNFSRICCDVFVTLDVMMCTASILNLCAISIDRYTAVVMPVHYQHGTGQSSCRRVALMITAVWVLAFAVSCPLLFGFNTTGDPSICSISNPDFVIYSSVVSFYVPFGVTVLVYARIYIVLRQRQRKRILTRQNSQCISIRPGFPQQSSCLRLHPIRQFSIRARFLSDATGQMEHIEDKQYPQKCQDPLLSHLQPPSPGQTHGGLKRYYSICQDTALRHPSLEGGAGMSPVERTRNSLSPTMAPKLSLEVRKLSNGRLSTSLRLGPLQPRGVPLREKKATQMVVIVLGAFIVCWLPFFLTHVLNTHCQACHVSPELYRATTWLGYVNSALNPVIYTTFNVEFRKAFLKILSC

Broadly, the EC50 is the concentration needed to bring the measured effect to its halfway point. As a reminder, the Ki is the equilibrium dissociation constant of an inhibitor or competing ligand from its target. A lower Ki goes with a stronger hold on the target. In the case of `CCCN(CCN1CCN(c2ccccc2)CC1)[C@@H]1CCc2ccc(NS(=O)(=O)c3ccc(OC)cc3)cc2C1`, the EC50 entry in assay [1] (cho) and in assay [4] (cho) was “Not Active” throughout. The values for the Ki in assay [2] and in assay [3] were 101 nM and 2.32 nM, respectively.

In general, Emax refers to the size of the effect at its maximum, as opposed to the concentration needed. With `CCCN(CCN1CCN(c2ccccc2)CC1)[C@@H]1CCc2ccc(N)cc2C1`, the Emax in assay [5] was 36.8%. In addition, the EC50 in assay [1] (read-out: EC50) was determined as 30.3 nM; in assay [4] (read-out: EC50), 179 nM. The inhibition constant (Ki) turned out to be 601 nM in assay [2] and 20.2 nM in assay [3].

For `CCCN(CCN1CCN(c2ccccc2)CC1)C1CCc2ccc(NC(C)=O)cc2C1` (centres undefined), the Ki in assay [2] is 1300 nM; in assay [3], 174 nM. Further, in assay [6], the Ratio Ki was found to be 7.44.

On to `CCCN(CCN1CCN(c2ccccc2)CC1)C1CCc2cc3[nH]c(N)nc3cc2C1` (centres undefined), for which the Ratio Ki in assay [6] stood at 8.89.

Take `CCCN(CCN1CCN(c2ccccc2)CC1)C1CCc2cc3cc[nH]c3cc2C1` (centres undefined): the Ki in assay [2] was found to be 127 nM; in assay [3] it was 10.7 nM. The Ratio Ki in assay [6] is 11.9.

For the compound `CCCN(CCN1CCN(c2ccccc2)CC1)C1CCc2ccc3nc[nH]c3c2C1` (centres undefined), the Ki in assay [2] was determined as 520 nM; in assay [3] it was 54.1 nM. Moreover, the Ratio Ki in assay [6] was found to be 9.61.

In the case of `CCCN(CCN1CCN(c2ccccc2)CC1)[C@H]1CCc2c(cccc2OS(=O)(=O)c2ccc(OC)cc2)C1`, the EC50 entry in assay [1] (cho) and in assay [4] (cho) was “Not Active” in each case. Moreover, the values for the Ki in assay [2] and in assay [3] were 497 nM and 17.6 nM, respectively.

`CCCN(CCN1CCN(c2ccccc2)CC1)C1CCc2ccc(NS(=O)(=O)c3ccc(Cl)cc3)cc2C1` (centres undefined): the Ki in assay [2] amounted to 72.4 nM; in assay [3], 4.13 nM. Moreover, the Ratio Ki in assay [6] amounted to 17.5.

For `CCCN(CCN1CCN(c2ccccc2OC)CC1)C1CCc2cc3[nH]c(=S)[nH]c3cc2C1` (centres undefined), the Ki in assay [2] came to 230 nM; in assay [3] it was 112 nM. Moreover, the Ratio Ki in assay [6] was found to be 2.05.

Turning to `CCCN(CCN1CCN(c2ccccc2)CC1)[C@@H]1CCc2ccc(OS(=O)(=O)c3ccc(OC)cc3)cc2C1`, the Ki worked out at 1080 nM in assay [2] and 26.9 nM in assay [3]. In addition, the Ratio Ki in assay [6] was 40.

Regarding `CCCN(CCN1CCN(c2ccccc2OC)CC1)C1CCc2cc3[nH]cnc3cc2C1` (centres undefined), the Ki amounted to 443 nM in assay [2] and 19.7 nM in assay [3]. The Ratio Ki in assay [6] worked out at 22.5.

Take `CCCN(CCN1CCN(c2ccccc2)CC1)C1CCc2ccc(NS(=O)(=O)c3ccc(C)cc3)cc2C1` (centres undefined): the Ki in assay [2] came to 39.2 nM; in assay [3] it was 3.69 nM. For the same compound, the Ratio Ki in assay [6] came out at 10.6.

`CCCN(CCN1CCN(c2ccccc2)CC1)C1CCc2ccc(NC(=O)c3ccccc3)cc2C1` (centres undefined): the results for the Ki in assay [2] and in assay [3] were 624 nM and 109 nM, respectively. In assay [6], the Ratio Ki is 5.72.

Consider `CCCN(CCN1CCN(c2ccccc2)CC1)C1CCc2ccc(NS(=O)(=O)c3ccc(OC)cc3)cc2C1` (racemic), for which the Ki worked out at 64.9 nM in assay [2] and 2.22 nM in assay [3].

For the compound `CCCN(CCN1CCN(c2ccccc2)CC1)[C@H]1CCc2c(cccc2OS(=O)(=O)c2ccc(C)cc2)C1`, the results for the Ki in assay [2] and in assay [3] were 632 nM and 32 nM, respectively. Also, the Ratio Ki in assay [6] came out at 19.8.

Consider `CCCN(CCN1CCN(c2ccccc2OC)CC1)C1CCc2cc3[nH]c(=O)[nH]c3cc2C1` (centres undefined), for which the Ki came out at 417 nM in assay [2] and 195 nM in assay [3]. Further, the Ratio Ki in assay [6] worked out at 2.14.

Take `CCCN(CCN1CCN(c2ccccc2)CC1)[C@H]1CCc2ccc(N)cc2C1`: the Ki is 2710 nM in assay [2] and 45.5 nM in assay [3].

Turning to `CCCN(CCN1CCN(c2ccccc2)CC1)C1CCc2ccc(N)cc2C1` (racemic), the Ki in assay [2] was found to be 638 nM; in assay [3], 22.2 nM.

Consider `CCCN(CCN1CCN(c2nccc3ccccc23)CC1)[C@H]1CCc2nc(N)sc2C1`, for which the Ratio Ki in assay [6] turned out to be 121.

For the compound `CCCN(CCN1CCN(c2ccccc2)CC1)C1CCc2ccc(NS(=O)(=O)c3ccc(C(F)(F)F)cc3)cc2C1` (centres undefined), the values for the Ki in assay [2] and in assay [3] were 91.2 nM and 8.64 nM, respectively. Further, the Ratio Ki in assay [6] was determined as 10.6.

As for `CCCN(CCN1CCN(c2ccccc2)CC1)C1CCc2cc3[nH]cnc3cc2C1` (centres undefined), the Ki in assay [2] came out at 1280 nM; in assay [3], 60 nM. The Ratio Ki in assay [6] was determined as 21.3.

Take `CCCN(CCN1CCN(C(=O)c2cc3ccccc3[nH]2)CC1)C1CCc2nc(N)sc2C1` (centres undefined): the Emax in assay [5] was found to be 101%. Also, the EC50 in assay [1] (read-out: EC50) was 0.26 nM. Also, the Ki came to 1070 nM in assay [2] and 1.84 nM in assay [3].

(Values after ChEMBL document CHEMBL2384946 (Bioorg Med Chem, 2013).)
